The record followed here is publication PMC6046546, “Gossypol Inhibits Non-small Cell Lung Cancer Cells Proliferation by Targeting EGFR^L858R/T790M” (Frontiers in Pharmacology, 2018).

One experiment concerns the target EGFR^WT (Homo sapiens, UniProt P00533). Put plainly: ELISA kinase activity assay, poly(Glu,Tyr) […] substrate, […] ATP. Format: biochemical. For orientation: An ELISA detects its analyte on a solid surface through an enzyme-linked reagent.
A further experiment deals with T1, EGFR^L858R/T790M (Homo sapiens, UniProt P00533, L858R/T790M).
T1 construct: kinase domain
T1 sequence (P00533 696-1022 T790M/L858R limits assumed): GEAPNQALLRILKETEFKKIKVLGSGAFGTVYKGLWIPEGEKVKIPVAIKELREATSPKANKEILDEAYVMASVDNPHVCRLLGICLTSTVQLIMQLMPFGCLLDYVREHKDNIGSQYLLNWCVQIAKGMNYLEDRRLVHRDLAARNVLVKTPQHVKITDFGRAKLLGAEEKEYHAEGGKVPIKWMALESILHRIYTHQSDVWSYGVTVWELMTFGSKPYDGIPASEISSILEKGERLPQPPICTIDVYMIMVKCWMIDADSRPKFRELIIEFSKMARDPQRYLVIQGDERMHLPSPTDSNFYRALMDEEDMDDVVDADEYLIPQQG
The experiment can be described thus: ELISA kinase activity assay, recombinant kinase, poly(Glu,Tyr) […] substrate, […] ATP. Format: biochemical.

The structures appear in SMILES notation.

Chain of EGFR^WT (P00533 25-1210): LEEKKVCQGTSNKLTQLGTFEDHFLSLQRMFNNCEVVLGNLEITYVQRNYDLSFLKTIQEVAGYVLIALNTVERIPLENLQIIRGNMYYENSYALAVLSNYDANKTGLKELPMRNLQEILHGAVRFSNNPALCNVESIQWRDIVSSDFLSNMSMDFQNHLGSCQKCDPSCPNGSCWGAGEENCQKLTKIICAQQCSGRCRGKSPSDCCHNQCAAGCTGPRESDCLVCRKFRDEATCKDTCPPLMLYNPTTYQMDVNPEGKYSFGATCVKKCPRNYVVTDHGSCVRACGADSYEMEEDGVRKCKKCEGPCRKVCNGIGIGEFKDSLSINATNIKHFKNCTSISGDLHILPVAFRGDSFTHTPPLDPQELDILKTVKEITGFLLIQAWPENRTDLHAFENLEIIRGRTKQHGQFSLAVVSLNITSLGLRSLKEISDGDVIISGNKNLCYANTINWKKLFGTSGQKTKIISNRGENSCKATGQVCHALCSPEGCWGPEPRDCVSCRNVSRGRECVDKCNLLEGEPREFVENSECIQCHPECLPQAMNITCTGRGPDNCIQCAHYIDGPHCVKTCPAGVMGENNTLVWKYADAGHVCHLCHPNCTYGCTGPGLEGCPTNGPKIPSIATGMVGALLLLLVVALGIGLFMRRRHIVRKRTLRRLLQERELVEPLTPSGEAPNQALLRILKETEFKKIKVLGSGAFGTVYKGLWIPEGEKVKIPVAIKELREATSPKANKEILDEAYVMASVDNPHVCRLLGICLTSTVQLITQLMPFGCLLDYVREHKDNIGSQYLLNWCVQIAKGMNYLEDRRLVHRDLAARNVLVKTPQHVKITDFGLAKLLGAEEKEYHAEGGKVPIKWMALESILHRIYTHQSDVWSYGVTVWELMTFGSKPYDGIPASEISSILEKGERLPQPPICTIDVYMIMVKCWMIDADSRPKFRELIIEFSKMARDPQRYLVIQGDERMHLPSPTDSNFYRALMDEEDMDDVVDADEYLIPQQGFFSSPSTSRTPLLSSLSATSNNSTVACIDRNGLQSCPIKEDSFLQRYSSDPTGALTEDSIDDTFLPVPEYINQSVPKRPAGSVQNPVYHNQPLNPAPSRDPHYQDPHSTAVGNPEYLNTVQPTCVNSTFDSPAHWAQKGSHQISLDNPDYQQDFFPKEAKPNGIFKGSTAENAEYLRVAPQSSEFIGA

`Cc1cc2c(C(C)C)c(O)c(O)c(C=O)c2c(O)c1-c1c(C)cc2c(C(C)C)c(O)c(O)c(C=O)c2c1O` [gossypol]: the values for the EC50 at EGFR^WT and on EGFR^L858R/T790M were 253 ± 26.9 nM and 150 ± 30.7 nM, respectively.
